Source: patent US20200000816A1, “COMPOUND HAVING SOMATOSTATIN RECEPTOR AGONISTIC ACTIVITY AND PHARMACEUTICAL USE THEREOF” (ONO PHARMACEUTICAL CO., LTD., priority 2017, published 2020)

Tests used:
[1] = target: T1, human SSTR2 (Homo sapiens, UniProt P30874); assay: Evaluation of SSTR2 agonistic activity using cells expressing human SSTR2 (suppression of forskolin-stimulated cAMP production, SSTR2-CHO-K1); format: cell-based; conditions: suppression of cAMP production by forskolin stimulation, 1000 nmol/L octreotide = 100%
T1 construct: Myc; expressed in transfected cells
T1 sequence (P30874 whole entry): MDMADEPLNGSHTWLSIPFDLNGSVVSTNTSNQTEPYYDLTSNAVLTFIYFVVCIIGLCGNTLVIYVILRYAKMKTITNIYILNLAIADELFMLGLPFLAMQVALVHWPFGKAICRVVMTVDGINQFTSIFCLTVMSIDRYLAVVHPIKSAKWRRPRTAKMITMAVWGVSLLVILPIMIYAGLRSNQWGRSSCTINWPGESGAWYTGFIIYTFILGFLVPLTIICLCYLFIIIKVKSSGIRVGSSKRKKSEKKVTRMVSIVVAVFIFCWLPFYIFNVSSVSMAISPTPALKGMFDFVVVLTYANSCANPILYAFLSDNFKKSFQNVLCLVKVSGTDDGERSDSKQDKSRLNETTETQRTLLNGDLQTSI

[2] = target: T2, hERG K+ channel (Homo sapiens, UniProt Q12809); assay: Evaluation of hERG K+ channel inhibitory activity using cells expressing human ERG (automated patch-clamp, CHO-K1); format: cell-based; conditions: CHO-K1 cells with human ERG gene, tested at 1, 3 and 10 μmol/L, 5-minute incubation
T2 construct: expressed in transfected cells; host or cells: CHO-K1
T2 sequence (Q12809 whole entry): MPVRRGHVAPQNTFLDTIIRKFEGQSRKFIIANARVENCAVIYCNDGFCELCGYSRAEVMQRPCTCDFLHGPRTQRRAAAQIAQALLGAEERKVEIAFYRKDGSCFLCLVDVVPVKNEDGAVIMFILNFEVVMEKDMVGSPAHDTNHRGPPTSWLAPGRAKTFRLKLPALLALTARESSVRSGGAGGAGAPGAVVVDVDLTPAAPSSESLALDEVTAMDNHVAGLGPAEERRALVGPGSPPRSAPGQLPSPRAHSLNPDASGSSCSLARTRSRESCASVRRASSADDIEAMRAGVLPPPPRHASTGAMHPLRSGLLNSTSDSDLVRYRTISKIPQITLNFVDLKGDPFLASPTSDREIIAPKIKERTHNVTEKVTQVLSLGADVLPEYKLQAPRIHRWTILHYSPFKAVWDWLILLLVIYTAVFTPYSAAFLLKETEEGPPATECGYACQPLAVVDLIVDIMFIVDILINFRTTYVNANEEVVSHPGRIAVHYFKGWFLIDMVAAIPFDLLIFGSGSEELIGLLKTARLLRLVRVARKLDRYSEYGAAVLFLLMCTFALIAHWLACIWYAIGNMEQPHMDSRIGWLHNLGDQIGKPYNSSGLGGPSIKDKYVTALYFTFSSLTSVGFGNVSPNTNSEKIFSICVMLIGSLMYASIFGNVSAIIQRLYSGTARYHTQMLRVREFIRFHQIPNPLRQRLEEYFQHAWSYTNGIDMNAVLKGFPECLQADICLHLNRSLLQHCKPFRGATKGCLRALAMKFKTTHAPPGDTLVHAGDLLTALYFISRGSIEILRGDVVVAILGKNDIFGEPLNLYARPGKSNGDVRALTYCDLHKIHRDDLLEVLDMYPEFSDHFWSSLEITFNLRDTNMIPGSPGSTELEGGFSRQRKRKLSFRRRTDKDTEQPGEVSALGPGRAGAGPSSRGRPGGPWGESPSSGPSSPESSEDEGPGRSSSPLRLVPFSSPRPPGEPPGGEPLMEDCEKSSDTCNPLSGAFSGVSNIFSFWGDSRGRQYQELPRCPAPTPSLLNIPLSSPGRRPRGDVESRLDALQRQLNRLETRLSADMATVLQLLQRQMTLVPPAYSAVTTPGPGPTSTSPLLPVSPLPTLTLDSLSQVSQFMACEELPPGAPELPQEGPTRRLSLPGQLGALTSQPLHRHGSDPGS
Description: Evaluation of hERG K^+ Channel Inhibitory Activity Using Cells Expressing Human ERG
CHO-K1 cells having the human ERG gene (ether-a-go-go related gene) introduced therein were subcultured in an F-12 medium [F-12 Nutrient Mixture (HAM)] containing 10% inactivated foetal bovine serum, 100 IU/mL penicillin-100 μg/mL streptomycin and 200 μg/mL geneticin.
Patch-clamp was performed in a full-automated manner using CHO-K1 cells having the human ERG gene introduced therein and having a perforated patch formed therein with amphotericin B. For the experiment, a 384-well PatchPlate™ was used and the cell suspension and compounds were added thereto. The IKr current was measured with command voltages of holding potential of −80 mV, depolarization potential of +40 mV (2 seconds) and repolarization potential of −50 mV (2 seconds). The stimulation frequency was twice (single pulse stimulations) before and after the treatment with a drug (the concentrations of a compound for evaluation were 1, 3 and 10 μmol/L, a 5-minute incubation), and the Ikr maximum current was measured. The inhibition (%) on the CHO-K1 cells having the human ERG gene introduced therein was determined by correcting the variation in the maximum tail current before and after addition of the test substance by the variation thereof in the group treated with a medium (inhibition (%)=(1-variation in current before and after addition of a test substance/variation in current before and after addition of a medium)×100). The 50% inhibitory concentration (IC50 value) was calculated from a line connecting two points on both sides of the inhibition of 50%.

[3] = tested on: Chinese hamster lung-derived CHL/IU cells; assay: Evaluation of phospholipidosis induction ability using cultured cell line (NBD-PE incorporation); format: cell-based; conditions: 24 hours, positive = 25% or more of amiodarone maximum reaction at cell viability 50% or more; for phospholipidosis induction ability (judgement): 6.25-100 μmol/L
Description: Chinese hamster lung-derived CHL/IU cells were suspended in an MEM-E culture solution containing non-essential amino acids, sodium pyruvate and 10% foetal bovine serum and seeded in a 96-well plate. The cells cultured overnight in an incubator (5% carbon dioxide, 95% air, 37° C.) were further cultured for 24 hours after replacing the culture solution with a culture solution containing 6.25, 12.5, 25, 50 or 100 μmol/L of a test substance and NBD-PE (fluorescence label N-(7-nitrobenz-2-oxa-1,3-diazol-4-yl)-1,2-dihexadecanoyl-sn-glycero-3-phosphoethanolamine triethylammonium salt) obtained from Molecular Probes. The phospholipidosis induction ability was evaluated by measuring the concentration of NBD-PE incorporated into the cells. Specifically, the cells were washed twice with PBS and then measured for the fluorescence of NBD-PE (excitation wavelength: 485 nm, fluorescence wavelength: 535 nm) incorporated in the cells on a SpectraMax plate reader available from Molecular Devices, LLC. for evaluation. After measurement of the fluorescence of NBD-PE, the cell viability was evaluated with Premix WST-1 Cell Proliferation Assay System available from TaKaRa Bio Inc. The phospholipidosis induction ability was judged to be positive when, at a dose that provided a cell viability of 50% or more, the reaction (the concentration of NBD-PE incorporated after administration of a test substance) was 25% or more of the maximum reaction of a positive control amiodarone (the concentration of NBD-PE incorporated into the cells after administration of amiodarone was regarded as 100%).

[4] = tested on: GH secretion; assay: Evaluation of suppression of growth hormone (GH) secretion using rats (GHRH-induced); format: in vivo; conditions: Rattus norvegicus, 5 min, oral, dosage of 1 mg/kg, GHRH given 8 hours after dosing, blood GH 5 minutes after GHRH
Description: A medium (distilled water (Otsuka distilled water, Otsuka Pharmaceutical Factory, Inc.)) or a test compound dissolved in the medium was orally administered to rats (7-week old male Crl:CD(SD) IGS rats (Charles River Laboratories Japan, Inc.)) and after 7 hours and 57 minutes, the animals were administered with 50 mg/kg of pentobarbital sodium (Somnopentyl, Kyoritsu Seiyaku Corporation) via the tail vein for anaesthesia. Three minutes after administration of pentobarbital sodium, the rats were administered with 0.01 mg/kg of growth hormone-releasing hormone (GHRH, Bachem) via the tail vein to induce GH secretion. In order to measure the blood GH concentration, 0.2 mL of blood was collected through the jugular vein at 5 minutes after administration of GHRH. The collected blood was centrifuged at 4° C., 13,000×g for 5 minutes to obtain plasma. The blood GH concentration was measured by using Rat/Mouse Growth Hormone ELISA (Millipore) following the instruction of the kit. The percentage (%) of suppression of GH secretion was determined by using the obtained blood GH concentration and the equation {[suppression (%) of GH secretion]=([blood GH concentration of the group administered with the medium]−[blood GH concentration of the group administered with a test compound])/[blood GH concentration of the group administered with the medium]×100}. In the equation, the group administered with the medium represents the group of animals administered with the medium and the group administered with a test compound represents the group of animals administered with a test compound dissolved in the medium.

| EC50 [1] | SMILES | IC50 [2] | concentration at which judged to be positive in phospholipidosis induction ability [3] | inhibition in vivo at 1 mg/kg [4] | phospholipidosis induction ability (judgement) [3] |
| --- | --- | --- | --- | --- | --- |
| 0.005 nM | COC(=O)c1cc(F)cc2nc(-c3cncc(-c4cc(F)ccc4F)c3N3CC[C@@H](N)[C@@H](O)C3)[nH]c12 [Example 4(16), Methyl 2-{4-[(3S,4R)-4-amino-3-hydroxy-1-piperidinyl]-5-(2,5-difluorophenyl)-3-pyridinyl}-5-fluoro-1H-benzimidazole-7-carboxylate] | 3900 nM | 25 µM | 67% |  |
| 0.012 nM | COc1ccc2nc(-c3cncc(-c4cc(F)ccc4F)c3N3CC[C@@H](N)[C@@H](O)C3)[nH]c2c1 [Example 4(15), (3S,4R)-4-amino-1-[3-(2,5-difluorophenyl)-5-(6-methoxy-1H-benzimidazol-2-yl)-4-pyridinyl]-3-piperidinol] | 9100 nM | 25 µM |  |  |
| 0.019 nM | COC(=O)c1cc(F)cc2nc(-c3c(C)ncc(-c4cc(F)cc(Cl)c4)c3N3CC[C@@H](N)[C@@H](O)C3)[nH]c12 [Example 2(3), Methyl 2-{4-[(3S,4R)-4-amino-3-hydroxy-1-piperidinyl]-5-(3-chloro-5-fluorophenyl)-2-methyl-3-pyridinyl}-5-fluoro-1H-benzimidazole-7-carboxylate] | 5200 nM | 12.5 µM | 76% |  |
| 0.016 nM | COC(=O)c1cc(F)cc2nc(-c3c(C)ncc(-c4cc(F)ccc4F)c3N3CC[C@@H](N)[C@@H](O)C3)[nH]c12 [Example 2(12), Methyl 2-{4-[(3S,4R)-4-amino-3-hydroxy-1-piperidinyl]-5-(2,5-difluorophenyl)-2-methyl-3-pyridinyl}-5-fluoro-1H-benzimidazole-7-carboxylate] | 9400 nM |  |  |  |
| 0.023 nM | Cc1ncc(-c2cc(F)cc(Cl)c2)c(N2CC[C@@H](NC3COC3)[C@@H](O)C2)c1-c1nc2cc(F)c(F)cc2[nH]1 [Example 3(5), (3S,4R)-1-[5-(3-chloro-5-fluorophenyl)-3-(5,6-difluoro-1H-benzimidazol-2-yl)-2-methyl-4-pyridinyl]-4-(3-oxetanylamino)-3-piperidinol] | 9600 nM |  | 83% | negative |
| 0.015 nM | N[C@@H]1CCN(c2c(-c3cc(F)cc(F)c3)cncc2-c2nc3cc(F)c(F)cc3[nH]2)C[C@@H]1O [Example 4, (3S,4R)-4-amino-1-[3-(5,6-difluoro-1H-benzimidazol-2-yl)-5-(3,5-difluorophenyl)-4-pyridinyl]-3-piperidinol] | 6900 nM | ≥ 12.5 µM |  |  |
| 0.032 nM | Cn1cc(-c2ncc(-c3cc(F)cc(F)c3)c(N3CC[C@@H](N)[C@@H](O)C3)c2-c2nc3cc(F)c(F)cc3[nH]2)cn1 [Example 1(2), (3S,4R)-4-amino-1-[3-(5,6-difluoro-1H-benzimidazol-2-yl)-5-(3,5-difluorophenyl)-2-(1-methyl-1H-pyrazol-4-yl)-4-pyridinyl]-3-piperidinol] | ≥ 10000 nM |  |  | negative |
| 0.28 nM | O[C@H]1CN(c2c(-c3cc(F)cc(Cl)c3)cncc2-c2nc3cc(F)c(F)cc3[nH]2)CC[C@H]1NCCC(F)(F)F [Example 5(3), (3S,4R)-1-[3-(3-chloro-5-fluorophenyl)-5-(5,6-difluoro-1H-benzimidazol-2-yl)-4-pyridinyl]-4-[(3,3,3-trifluoropropyl)amino]-3-piperidinol] | ≥ 10000 nM |  |  | negative |
| 0.017 nM | Cc1ncc(-c2cc(F)cc(F)c2)c(N2CC[C@@H](N)[C@@H](O)C2)c1-c1nc2cc(F)c(F)c(F)c2[nH]1 [Example 2(13), (3S,4R)-4-amino-1-[5-(3,5-difluorophenyl)-2-methyl-3-(5,6,7-trifluoro-1H-benzimidazol-2-yl)-4-pyridinyl]-3-piperidinol] | ≥ 10000 nM |  |  |  |
| 0.42 nM | COc1cc(F)cc(-c2cncc(-c3nc4cc(F)c(F)cc4[nH]3)c2N2CC[C@@H](NCCC(F)(F)F)[C@@H](O)C2)c1 [Example 5(5), (3S,4R)-1-[3-(5,6-difluoro-1H-benzimidazol-2-yl)-5-(3-fluoro-5-methoxyphenyl)-4-pyridinyl]-4-[(3,3,3-trifluoropropyl)amino]-3-piperidinol] | ≥ 10000 nM |  |  | negative |
| 0.0093 nM | N[C@@H]1CCN(c2c(-c3cc(F)cc(F)c3)cncc2-c2nc3ccccc3[nH]2)C[C@@H]1O [Example 4(4), (3S,4R)-4-amino-1-[3-(1H-benzimidazol-2-yl)-5-(3,5-difluorophenyl)-4-pyridinyl]-3-piperidinol] | 6700 nM | 25 µM |  |  |
| 0.056 nM | CCN[C@@H]1CCN(c2c(-c3cc(F)cc(F)c3)cnc(C)c2-c2nc3cc(F)c(OC)cc3[nH]2)C[C@@H]1O [Example 3(4), (3S,4R)-1-[5-(3,5-difluorophenyl)-3-(5-fluoro-6-methoxy-1H-benzimidazol-2-yl)-2-methyl-4-pyridinyl]-4-(ethylamino)-3-piperidinol] | ≥ 10000 nM |  | 71% |  |
| 0.027 nM | COc1ccc2nc(-c3c(C)ncc(-c4cc(F)cc(Cl)c4)c3N3CC[C@@H](NC4COC4)[C@@H](O)C3)[nH]c2c1 [Example 3, (3S,4R)-1-[5-(3-chloro-5-fluorophenyl)-3-(6-methoxy-1H-benzimidazol-2-yl)-2-methyl-4-pyridinyl]-4-(3-oxetanylamino)-3-piperidinol] | ≥ 10000 nM |  |  | negative |
| 0.081 nM | COC(=O)c1cc(F)cc2nc(-c3c(N4CCOCC4)ncc(-c4cc(F)cc(F)c4)c3N3CC[C@@H](N)[C@@H](O)C3)[nH]c12 [Example 6, Methyl 2-{4-[(3S,4R)-4-amino-3-hydroxy-1-piperidinyl]-5-(3,5-difluorophenyl)-2-(4-morpholinyl)-3-pyridinyl}-5-fluoro-1H-benzimidazole-7-carboxylate] | 4400 nM | 50 µM |  |  |
| 0.47 nM | CCN[C@@H]1CCN(c2c(-c3cc(F)cc(F)c3)cnc(C)c2-c2nc3cc(F)c(F)c(F)c3[nH]2)C[C@@H]1O [Example 3(15), (3S,4R)-1-[5-(3,5-difluorophenyl)-2-methyl-3-(5,6,7-trifluoro-1H-benzimidazol-2-yl)-4-pyridinyl]-4-(ethylamino)-3-piperidinol] | 5800 nM |  | 66% |  |
